The text below walks through data of patent US6685617B1, “Inhibitors of α4β1 mediated cell adhesion” (Pharmacia & Upjohn Company, priority 1998, dated 2004).

Where a name gives a salt, the structure may show the parent alone.

The target of data set [1] is T1, α4β1 integrin (Jurkat T-cell adhesion to IL-1 stimulated endothelial cell monolayers) (Homo sapiens, UniProt P05556+P13612).
T1 construct: a T-cell line, Jurkat, known to express the α4β1 integrin; host or cells: Jurkat T-cell line
The data set is described as follows: Jurkat-endothelial cell adhesion assay (Jurkat EC). It is filed as cell-based. The following applies: Jurkat cells on IL-1 stimulated human umbilical vein endothelial cells; read-out: JK/EC (Jurkat EC Assay IC50 value range). In short, it runs like this: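 BCECF-AM-labelled Jurkat cells were mixed with compound, generally 100, 20, 5 and 1.25 μM, and added to HUVEC monolayers (passage ≤6) pre-stimulated 4 hr at 37° C with 0.1 ng/ml IL-1. After 5 min on ice and 20 min at 37° C, washed wells were read by fluorescence as % adhesion relative to no compound.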

Data set [2] has as its target T2, α4β1 integrin (Jurkat cell adhesion to immobilized CS-1 derived peptide CLHPGEILDVPST) (Homo sapiens, UniProt P05556+P13612).
T2 construct: 100 μl of Jurkat cells (2.5×10^6 cells/ml) in DMEM plus BSA; host or cells: Jurkat T-cell line
The data set is described as follows: Jurkat-CS-1 assay. The settings on record: Jurkat cells on CS-1 peptide coated plates; read-out: JK/CS-1 (Jurkat CS-1 Assay IC50 value range). It is filed as cell-based. In short, it runs like this: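 CS-1 peptide was SPDP-crosslinked onto HSA-coated plates and blocked with BSA. Jurkat cells (2.5×10^6 cells/ml) in DMEM/BSA were mixed with compound, generally at 100, 20, 5 and 1.25 μM, and allowed to adhere for 1 hr at 37° C. Bound cells were fixed, stained with toluidine blue and quantified by OD590.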

T1 sequence (P13612 34-1032): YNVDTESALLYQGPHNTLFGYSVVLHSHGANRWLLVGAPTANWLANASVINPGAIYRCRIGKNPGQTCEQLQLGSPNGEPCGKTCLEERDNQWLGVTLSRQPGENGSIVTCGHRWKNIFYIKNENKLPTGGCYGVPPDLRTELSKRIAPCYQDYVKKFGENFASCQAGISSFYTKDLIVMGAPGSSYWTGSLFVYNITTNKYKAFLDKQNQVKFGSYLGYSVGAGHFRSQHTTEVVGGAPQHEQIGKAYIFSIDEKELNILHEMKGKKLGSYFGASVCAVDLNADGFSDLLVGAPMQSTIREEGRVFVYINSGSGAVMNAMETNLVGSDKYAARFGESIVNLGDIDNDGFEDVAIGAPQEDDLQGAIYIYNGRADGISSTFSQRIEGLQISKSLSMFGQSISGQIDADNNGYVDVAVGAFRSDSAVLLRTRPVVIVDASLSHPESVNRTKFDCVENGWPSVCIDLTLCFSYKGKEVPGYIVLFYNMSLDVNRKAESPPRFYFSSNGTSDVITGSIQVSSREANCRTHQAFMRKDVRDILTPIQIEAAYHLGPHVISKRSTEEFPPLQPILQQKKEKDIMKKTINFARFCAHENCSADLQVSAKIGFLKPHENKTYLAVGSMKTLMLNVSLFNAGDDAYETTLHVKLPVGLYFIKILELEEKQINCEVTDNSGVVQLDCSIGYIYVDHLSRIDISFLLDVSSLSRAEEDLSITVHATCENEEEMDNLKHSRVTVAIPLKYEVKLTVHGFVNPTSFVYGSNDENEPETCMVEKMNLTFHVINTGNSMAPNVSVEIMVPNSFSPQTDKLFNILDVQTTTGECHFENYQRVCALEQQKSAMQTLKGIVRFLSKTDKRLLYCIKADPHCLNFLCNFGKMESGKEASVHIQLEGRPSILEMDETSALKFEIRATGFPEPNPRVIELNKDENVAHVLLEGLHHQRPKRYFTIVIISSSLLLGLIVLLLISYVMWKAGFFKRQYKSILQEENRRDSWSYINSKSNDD
T1 sequence (P05556 21-798): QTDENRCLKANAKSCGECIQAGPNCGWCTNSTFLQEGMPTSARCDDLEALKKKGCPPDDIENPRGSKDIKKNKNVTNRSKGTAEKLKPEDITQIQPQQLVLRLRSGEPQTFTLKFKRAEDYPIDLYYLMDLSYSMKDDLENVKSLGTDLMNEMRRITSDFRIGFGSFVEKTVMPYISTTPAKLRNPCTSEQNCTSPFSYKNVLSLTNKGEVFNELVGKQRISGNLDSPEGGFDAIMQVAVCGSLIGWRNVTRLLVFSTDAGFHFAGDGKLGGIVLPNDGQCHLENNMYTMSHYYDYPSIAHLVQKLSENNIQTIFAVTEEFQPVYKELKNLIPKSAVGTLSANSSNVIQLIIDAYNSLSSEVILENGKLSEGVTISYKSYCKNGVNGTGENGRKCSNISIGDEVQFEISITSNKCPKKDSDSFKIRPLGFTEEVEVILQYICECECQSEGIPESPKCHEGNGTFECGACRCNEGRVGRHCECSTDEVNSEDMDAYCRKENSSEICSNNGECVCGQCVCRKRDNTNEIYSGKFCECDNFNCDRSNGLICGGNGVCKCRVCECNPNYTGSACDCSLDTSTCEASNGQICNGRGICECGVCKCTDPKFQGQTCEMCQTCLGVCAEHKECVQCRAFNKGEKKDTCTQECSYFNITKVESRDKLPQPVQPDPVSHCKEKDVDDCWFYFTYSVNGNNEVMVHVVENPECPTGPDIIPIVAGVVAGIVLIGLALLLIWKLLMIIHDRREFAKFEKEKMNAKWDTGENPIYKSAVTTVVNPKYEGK
T2 sequence (P13612 34-1032): as the sequence (P13612 34-1032) above
T2 sequence (P05556 21-798): as the sequence (P05556 21-798) above

For `C[C@@H](c1ccccc1)N1[C@H](C(=O)O)C[C@H]1C(=O)N[C@@H](Cc1ccc(NC(=O)c2c(Cl)cccc2Cl)cc1)C(=O)O` (as salt: salt) [Example 129, [2S-[1(R*),2α,4β(R*)]]-4-[[[1-Carboxy-2-[4-[(2,6-dichlorobenzoyl)amino]phenyl]ethyl]-amino]carbonyl]-1-(1-phenylethyl)-2-azetidinecarboxylic Acid Dilithium Salt], the melting point stood at 270 °C.

Compound `CCOC(=O)N1CSC[C@@H]1C(=O)N[C@@H](Cc1ccc(NC(=O)c2c(Cl)cccc2Cl)cc1)C(=O)O` (relative stereo) [Example 12, [S-(R*,R*)]-4-[[[1-Carboxy-2-[4-[(2,6-dichlorobenzoyl)amino]phenyl]ethyl]amino]carbonyl]-3-thiazolidinecarboxylic Acid 3-Ethyl Ester] came in with a melting point of 118 to 121 °C. In addition, in data set [1], the IC50 is not above 250 nM. For the same compound, the IC50 in data set [2] is not above 50 nM.

Take `COC(=O)[C@H](Cc1ccc(OCc2c(Cl)cccc2Cl)cc1)NC(=O)[C@H]1CSCN1C(=O)OCCN1CCOCC1` (relative stereo) [Example 36, [S-(R*,R*)]-4-[[[1-[4-[(2,6-Dichlorophenyl)methoxy]phenyl]methyl]-2-methoxy-2-oxoethyl]amino]carbonyl]-3-thiazolidinecarboxylic Acid 3-[2-(4-Morpholinyl)ethyl]ester]: the melting point was in the range of 138 to 140 °C. In addition, in data set [1], the IC50 is not above 250 nM. Moreover, the IC50 in data set [2] was not above 50 nM.

For `O=C(O)c1cccc(C(=O)N2CCC[C@H]2C(=O)N[C@@H](Cc2ccc(NC(=O)c3c(Cl)cccc3Cl)cc2)C(=O)O)c1` [Example 235], the figures for the IC50 in data set [1] and in data set [2] were not below 1000 nM and 50 to 750 nM, respectively.

As for `O=C(O)c1ccc2cc(C(=O)N3CCC[C@H]3C(=O)N[C@@H](Cc3ccc(NC(=O)c4c(Cl)cccc4Cl)cc3)C(=O)O)ccc2c1` [Example 236], the results for the IC50 in data set [1] and in data set [2] were not below 1000 nM and not below 750 nM, respectively.

Consider `O=C(O)c1cncc(C(=O)N2CCC[C@H]2C(=O)N[C@@H](Cc2ccc(NC(=O)c3c(Cl)cccc3Cl)cc2)C(=O)O)c1` [Example 237], for which the IC50 is not below 1000 nM in data set [1] and 50 to 750 nM in data set [2].

Turning to `O=C(O)c1ccc(NC(=O)N2CCC[C@H]2C(=O)N[C@@H](Cc2ccc(NC(=O)c3c(Cl)cccc3Cl)cc2)C(=O)O)cc1` [Example 238], the IC50 is not below 1000 nM in data set [1] and 50 to 750 nM in data set [2].

As to `O=C(Nc1ccc(C[C@H](NC(=O)[C@@H]2CSCN2C(=O)c2cccnc2)C(=O)O)cc1)c1c(Cl)cccc1Cl` [Example 239], the IC50 is not below 1000 nM in data set [1] and 50 to 750 nM in data set [2].

For `O=C(O)c1cccc(C(=O)N2CSC[C@H]2C(=O)N[C@@H](Cc2ccc(NC(=O)c3c(Cl)cccc3Cl)cc2)C(=O)O)n1` [Example 240], the values for the IC50 in data set [1] and in data set [2] were not below 1000 nM and 50 to 750 nM, respectively.

Regarding `O=C(O)c1ccc(C(=O)N2CSC[C@H]2C(=O)N[C@@H](Cc2ccc(NC(=O)c3c(Cl)cccc3Cl)cc2)C(=O)O)nc1` [Example 241], the IC50 in data set [1] is not below 1000 nM; in data set [2], 50 to 750 nM.

As for `O=C(Nc1ccc(C[C@H](NC(=O)[C@@H]2CSCN2C(=O)c2cc(O)c3ccccc3n2)C(=O)O)cc1)c1c(Cl)cccc1Cl` [Example 242], the IC50 in data set [1] is not below 1000 nM; in data set [2], 50 to 750 nM.

Turning to `O=C(O)c1cc(C(=O)N2CSC[C@H]2C(=O)N[C@@H](Cc2ccc(NC(=O)c3c(Cl)cccc3Cl)cc2)C(=O)O)n[nH]1` [Example 243], the IC50 in data set [1] is 250 to 1000 nM; in data set [2] it was 50 to 750 nM.

For `O=C(Nc1ccc(C[C@H](NC(=O)[C@@H]2CSCN2C(=O)C2NC(C(=O)O)CS2)C(=O)O)cc1)c1c(Cl)cccc1Cl` (stereo partly shown) [Example 244], the values for the IC50 in data set [1] and in data set [2] were 250 to 1000 nM and 50 to 750 nM, respectively.

Consider `O=C(Nc1ccc(C[C@H](NC(=O)[C@@H]2CSCN2C(=O)C2CCCO2)C(=O)O)cc1)c1c(Cl)cccc1Cl` (stereo partly shown) [Example 245], for which the IC50 in data set [1] is not above 250 nM; in data set [2] it was 50 to 750 nM.

Take `O=C(Nc1ccc(C[C@H](NC(=O)[C@@H]2CSCN2C(=O)C2CCOC2)C(=O)O)cc1)c1c(Cl)cccc1Cl` (stereo partly shown) [Example 246]: the figures for the IC50 in data set [1] and in data set [2] were 250 to 1000 nM and 50 to 750 nM, respectively.

Take `O=C(O)/C=C/C(=O)N1CCCC[C@@H]1C(=O)N[C@@H](Cc1ccc(NC(=O)c2c(Cl)cccc2Cl)cc1)C(=O)O` [Example 248]: the results for the IC50 in data set [1] and in data set [2] were 250 to 1000 nM and 50 to 750 nM, respectively.

With `COCCC(=O)N1CCCC[C@@H]1C(=O)N[C@@H](Cc1ccc(NC(=O)c2c(Cl)cccc2Cl)cc1)C(=O)O` [Example 249], the IC50 in data set [1] is 250 to 1000 nM; in data set [2] it was 50 to 750 nM.

`O=C(O)c1cccc(C(=O)N2CCCC[C@@H]2C(=O)N[C@@H](Cc2ccc(NC(=O)c3c(Cl)cccc3Cl)cc2)C(=O)O)n1` [Example 251]: the results for the IC50 in data set [1] and in data set [2] were not above 250 nM and not above 50 nM, respectively.

With `O=C(Nc1ccc(C[C@H](NC(=O)[C@H]2CCCCN2C(=O)c2cccnc2)C(=O)O)cc1)c1c(Cl)cccc1Cl` [Example 252], the IC50 in data set [1] is not above 250 nM; in data set [2] it was not above 50 nM.

With `O=C(Nc1ccc(C[C@H](NC(=O)[C@H]2CCCCN2C(=O)C2CCCO2)C(=O)O)cc1)c1c(Cl)cccc1Cl` (stereo partly shown) [Example 253], the IC50 was not above 250 nM in data set [1] and 50 to 750 nM in data set [2].

Regarding `O=C(O)CCC(=O)N1CCC[C@@H]1C(=O)N[C@@H](Cc1ccc(NC(=O)c2c(Cl)cccc2Cl)cc1)C(=O)O` [Example 254], the IC50 in data set [1] was 250 to 1000 nM; in data set [2], 50 to 750 nM.

`O=C(O)/C=C/C(=O)N1CCC[C@@H]1C(=O)N[C@@H](Cc1ccc(NC(=O)c2c(Cl)cccc2Cl)cc1)C(=O)O` [Example 255]: the IC50 in data set [1] is not below 1000 nM; in data set [2], 50 to 750 nM.

`COCCC(=O)N1CCC[C@@H]1C(=O)N[C@@H](Cc1ccc(NC(=O)c2c(Cl)cccc2Cl)cc1)C(=O)O` [Example 256]: the IC50 in data set [1] was not above 250 nM; in data set [2], not above 50 nM.

Turning to `O=C(O)c1cncc(C(=O)N2CCC[C@@H]2C(=O)N[C@@H](Cc2ccc(NC(=O)c3c(Cl)cccc3Cl)cc2)C(=O)O)c1` [Example 257], the IC50 was 250 to 1000 nM in data set [1] and 50 to 750 nM in data set [2].

In the case of `O=C(O)c1cccc(C(=O)N2CCC[C@@H]2C(=O)N[C@@H](Cc2ccc(NC(=O)c3c(Cl)cccc3Cl)cc2)C(=O)O)n1` [Example 258], the IC50 in data set [1] was not above 250 nM; in data set [2], not above 50 nM.

Consider `O=C(Nc1ccc(C[C@H](NC(=O)[C@H]2CCCN2C(=O)c2cccnc2)C(=O)O)cc1)c1c(Cl)cccc1Cl` [Example 259], for which the IC50 is not above 250 nM in data set [1] and 50 to 750 nM in data set [2].

For the compound `O=C(Nc1ccc(C[C@H](NC(=O)[C@H]2CCCN2C(=O)C2CCCO2)C(=O)O)cc1)c1c(Cl)cccc1Cl` (stereo partly shown) [Example 260], the IC50 in data set [1] was 250 to 1000 nM; in data set [2], 50 to 750 nM.

On to `O=C(O)/C=C/C(=O)N1CSC[C@@H]1C(=O)N[C@@H](Cc1ccc(NC(=O)c2c(Cl)cccc2Cl)cc1)C(=O)O` [Example 261], for which the IC50 lay within 250 to 1000 nM in data set [1] and 50 to 750 nM in data set [2].

For the compound `COCCC(=O)N1CSC[C@@H]1C(=O)N[C@@H](Cc1ccc(NC(=O)c2c(Cl)cccc2Cl)cc1)C(=O)O` [Example 262], the results for the IC50 in data set [1] and in data set [2] were not above 250 nM and not above 50 nM, respectively.

Take `O=C(O)c1cncc(C(=O)N2CSC[C@@H]2C(=O)N[C@@H](Cc2ccc(NC(=O)c3c(Cl)cccc3Cl)cc2)C(=O)O)c1` [Example 263]: the IC50 in data set [1] was in the range of 250 to 1000 nM; in data set [2] it was 50 to 750 nM.

`O=C(O)c1cccc(C(=O)N2CSC[C@@H]2C(=O)N[C@@H](Cc2ccc(NC(=O)c3c(Cl)cccc3Cl)cc2)C(=O)O)n1` [Example 264]: the IC50 in data set [1] is not above 250 nM; in data set [2] it was not above 50 nM.

Regarding `O=C(Nc1ccc(C[C@H](NC(=O)[C@H]2CSCN2C(=O)c2cccnc2)C(=O)O)cc1)c1c(Cl)cccc1Cl` [Example 265], the figures for the IC50 in data set [1] and in data set [2] were not above 250 nM and not above 50 nM, respectively.

Turning to `O=C(Nc1ccc(C[C@H](NC(=O)[C@H]2CSCN2C(=O)C2CCCO2)C(=O)O)cc1)c1c(Cl)cccc1Cl` (stereo partly shown) [Example 266], the IC50 in data set [1] was not above 250 nM; in data set [2], not above 50 nM.

As to `O=C(O)CCC(=O)N1CCSCCC1C(=O)N[C@@H](Cc1ccc(NC(=O)c2c(Cl)cccc2Cl)cc1)C(=O)O` (stereo partly drawn) [Example 267, 5-[[[(1S)-1-Carboxy-2-[4-[(2,6-dichlorobenzoyl)amino]phenyl]ethyl]amino]carbonyl]-tetrahydro-γ-oxo-1,4-thiazepine-4(5H)-butanoic Acid], the IC50 is not below 1000 nM in data set [1] and 50 to 750 nM in data set [2].

For “[2R-[1(R*),2α,4β(S*)]]-4-[[[1-Carboxy-2-[4-[(2,6-dichlorobenzoyl)amino]phenyl]-ethyl]-amino]carbonyl]-1-(1-phenylethyl)-2-azetidinecarboxylic Acid Dilithium Salt [Example 135]”, the IC50 in data set [1] was in the range of 250 to 1000 nM; in data set [2], 50 to 750 nM.

In the case of “[S]-3-[[[1-[[4-[(2,6-Dichlorobenzoyl)amino]phenyl]methyl]-2-methoxy-2-oxoethyl]amino]-carbonyl]-1-azetidinecarboxylic Acid 1-(1,1-Dimethyl)ethyl Ester [Example 145]”, the IC50 in data set [1] was not below 1000 nM; in data set [2], not below 750 nM.

As a reminder, the melting point is the temperature, or range, at which the solid turns liquid.
